ChEMBL document CHEMBL1158181, “Studies of trypanocidal (inhibitory) power of naphthoquinones: evaluation of quantum chemical molecular descriptors for structure-activity relationships” (Eur J Med Chem, 2008)

Tests used:
Leptomonas seymouri = test: Antitrypanosomal activity against Leptomonas seymouri; assay type: functional, organism-based
Crithidia fasciculata = test: Antitrypanosomal activity against Crithidia fasciculata; assay type: functional, organism-based
[1] = Oxidation of dithiothreitol assessed as oxygen consumption at 50 uM; assay type: physicochemical
[2] = Oxidation of dihydrolipoamide assessed as oxygen consumption at 50 uM; assay type: physicochemical

CCC1(C)CCC2=C(O1)c1ccccc1C(=O)C2=O (centres undefined)
IC50 (Leptomonas seymouri): 300 nM | IC50 (Crithidia fasciculata): 800 nM | Activity [1]: 208 µM/min | Activity [2]: 733 µM/min

CC1(C)CCC2=C(O1)c1cc(Cl)ccc1C(=O)C2=O
IC50 (Leptomonas seymouri): 400 nM | IC50 (Crithidia fasciculata): 800 nM | Activity [1]: 470 µM/min | Activity [2]: 879 µM/min

CC1=CC2=C(C(=O)C1=O)C(C)CCC2C(C)C (centres undefined) [MANSONONE A]
IC50 (Leptomonas seymouri): 8500 nM | IC50 (Crithidia fasciculata): 15000 nM | Activity [1]: 37 µM/min | Activity [2]: 26 µM/min

CC1=Cc2c(C(C)C)ccc(C)c2C(=O)C1=O
IC50 (Leptomonas seymouri): 4000 nM | IC50 (Crithidia fasciculata): 6000 nM | Activity [2]: 434 µM/min

CC1(C)CCC2=C(O1)C(=O)c1ccccc1C2=O [ALPHA-LAPACHONE]
IC50 (Leptomonas seymouri): 4100 nM | IC50 (Crithidia fasciculata): 27000 nM | Activity [1]: 1 µM/min | Activity [2]: 7 µM/min

CC1(c2ccccc2)CCC2=C(O1)c1ccccc1C(=O)C2=O (centres undefined)
IC50 (Leptomonas seymouri): 700 nM | IC50 (Crithidia fasciculata): 700 nM | Activity [1]: 315 µM/min | Activity [2]: 990 µM/min

CC1=COC2=C(C)C(=O)C(=O)c3c(C)ccc1c32 [MANSONONE F]
IC50 (Leptomonas seymouri): 100 nM | IC50 (Crithidia fasciculata): 300 nM | Activity [1]: 14 µM/min | Activity [2]: 58 µM/min

CC1(C)CCC2=C(O1)c1ccccc1C(=O)C2=O [LAPACHONE]
IC50 (Leptomonas seymouri): 400 nM | Activity [1]: 238 µM/min | Activity [2]: 808 µM/min

CC1=C2OCC(C)c3ccc(C)c(c32)C(=O)C1=O (centres undefined) [MANSONONE E]
IC50 (Leptomonas seymouri): 400 nM | IC50 (Crithidia fasciculata): 600 nM | Activity [1]: 66 µM/min | Activity [2]: 276 µM/min
